According to US20260124214A1, “HETEROCYCLIC COMPOUNDS FOR USE IN THE TREATMENT OF CANCER” (ARTIOS PHARMA LIMITED, priority 2021, published 2026):
Structures can show the parent of a compound that is named as a salt.

Molecular target: T1, Human Polθ polymerase domain (aa1820-2590) (Homo sapiens, UniProt O75417)
T1 construct: Human Polθ polymerase domain (aa1820-2590) was expressed in E. Coli; made in house; host or cells: E. coli
T1 sequence (O75417 1820-2590): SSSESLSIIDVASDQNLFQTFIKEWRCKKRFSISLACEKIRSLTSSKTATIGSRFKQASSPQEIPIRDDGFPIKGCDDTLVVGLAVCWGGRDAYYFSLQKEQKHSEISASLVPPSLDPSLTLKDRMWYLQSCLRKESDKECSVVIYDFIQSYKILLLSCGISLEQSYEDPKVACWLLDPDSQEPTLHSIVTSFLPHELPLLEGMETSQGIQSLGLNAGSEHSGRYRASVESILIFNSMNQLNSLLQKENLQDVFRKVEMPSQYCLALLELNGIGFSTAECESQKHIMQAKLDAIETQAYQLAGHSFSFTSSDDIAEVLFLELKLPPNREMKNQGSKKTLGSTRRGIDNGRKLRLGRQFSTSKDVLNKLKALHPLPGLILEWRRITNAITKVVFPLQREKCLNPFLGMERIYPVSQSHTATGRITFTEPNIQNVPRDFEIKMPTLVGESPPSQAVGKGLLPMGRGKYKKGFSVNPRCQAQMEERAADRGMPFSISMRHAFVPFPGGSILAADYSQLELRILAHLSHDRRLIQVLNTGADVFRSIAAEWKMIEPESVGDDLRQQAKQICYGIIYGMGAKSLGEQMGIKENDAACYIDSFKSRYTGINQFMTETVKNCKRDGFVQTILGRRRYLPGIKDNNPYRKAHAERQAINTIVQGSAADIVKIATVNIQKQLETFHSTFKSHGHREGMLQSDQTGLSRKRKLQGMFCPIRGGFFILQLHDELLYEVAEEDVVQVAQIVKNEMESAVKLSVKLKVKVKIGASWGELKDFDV
Experiment: Polθ Polymerase Domain WT KI Assay (PicoGreen)
Format: biochemical
Details: 100 nM DNA substrate, 0.156 nM Polθ, initial rates vs inhibitor concentration
Method in brief: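 E. coli-expressed human Polθ polymerase domain (aa1820-2590) on annealed DNA II Short/Long primer-template (1.2:1), in 25 mM Tris pH 7.5, NaCl, 5% glycerol, 0.01% Triton X-100, 0.1 mg/ml BSA, 1 mM DTT, 1% DMSO. EDTA-quenched timepoints to 180 min, PicoGreen fluorescence. Initial rates vs inhibitor concentration fitted four-parameter for KI.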

SMILES	Ki
Cc1cc(C(F)(F)F)cc(N2C(=O)C[C@@H]3CN(Cc4nnc5n4CCNC5)c4c(Cl)cccc4N(C)C(=O)[C@H]32)n1 [Example 101, (3aR,11aS)-6-Chloro-10-methyl-1-(6-methyl-4-(trifluoromethyl)pyridin-2-yl)-5-((5,6,7,8-tetrahydro-[1,2,4]triazolo[4,3-a]pyrazin-3-yl)methyl)-1,3a,4,5,10,11a-hexahydro-2H-benzo[b]pyrrolo[2,3-f][1,4]diazocine-2,11(3H)-dione hydrochloride]	3.73 nM
Cc1cc(C(F)(F)F)cc(N2C(=O)C[C@@H]3CN(C[C@@H]4CCNC4)c4c(C)cccc4N(C)C(=O)[C@H]32)n1 [Example 103, (3aR,11aS)-6,10-Dimethyl-1-(6-methyl-4-(trifluoromethyl)pyridin-2-yl)-5-(((R)-pyrrolidin-3-yl)methyl)-1,3a,4,5,10,11a-hexahydro-2H-benzo[b]pyrrolo[2,3-f][1,4]diazocine-2,11(3H)-dione hydrochloride]	2.43 nM
Cc1cc(C(F)(F)F)cc(N2C(=O)C[C@@H]3CN(C[C@H]4CCNC4)c4c(C)cccc4N(C)C(=O)[C@H]32)n1 [Example 104, (3aR,11aS)-6,10-Dimethyl-1-(6-methyl-4-(trifluoromethyl)pyridin-2-yl)-5-(((S)-pyrrolidin-3-yl)methyl)-1,3a,4,5,10,11a-hexahydro-2H-benzo[b]pyrrolo[2,3-f][1,4]diazocine-2,11(3H)-dione hydrochloride]	2.95 nM
Cc1cc(C(F)(F)F)cc(N2C(=O)C[C@@H]3CN(CC4CCCNC4)c4c(Cl)cccc4N(C)C(=O)[C@H]32)n1 (stereo partly drawn) [Example 110, (3aR,11aS)-6-Chloro-10-methyl-1-(6-methyl-4-(trifluoromethyl)pyridin-2-yl)-5-(piperidin-3-ylmethyl)-1,3a,4,5,10,11a-hexahydro-2H-benzo[b]pyrrolo[2,3-f][1,4]diazocine-2,11(3H)-dione]	2.08 nM
Cc1cc(C(F)(F)F)cc(N2C(=O)C[C@@H]3CN(CC[C@H]4CCNC4)c4c(Cl)cccc4N(C)C(=O)[C@H]32)n1 [Example 111, (3aR,11aS)-6-Chloro-10-methyl-1-(6-methyl-4-(trifluoromethyl)pyridin-2-yl)-5-(2-((R)-pyrrolidin-3-yl)ethyl)-1,3a,4,5,10,11a-hexahydro-2H-benzo[b]pyrrolo[2,3-f][1,4]diazocine-2,11(3H)-dione hydrochloride]	0.619 nM
Cc1cc(C(F)(F)F)cc(N2C(=O)C[C@@H]3CN(Cc4cc5n(n4)CCN(C)C5)c4c(C)cccc4N(C)C(=O)[C@H]32)n1 [Example 113, (3aR,11aS)-6,10-Dimethyl-5-((5-methyl-4,5,6,7-tetrahydropyrazolo[1,5-a]pyrazin-2-yl)methyl)-1-(6-methyl-4-(trifluoromethyl)pyridin-2-yl)-1,3a,4,5,10,11a-hexahydro-2H-benzo[b]pyrrolo[2,3-f][1,4]diazocine-2,11(3H)-dione]	0.237 nM
Cc1cc(C(F)(F)F)cc(N2C(=O)C[C@@H]3CN(Cc4ccncc4)c4c(C)cccc4N(C)C(=O)[C@H]32)n1 [Example 114, (3aR,11aS)-6,10-Dimethyl-1-(6-methyl-4-(trifluoromethyl)pyridin-2-yl)-5-(pyridin-4-ylmethyl)-1,3a,4,5,10,11a-hexahydro-2H-benzo[b]pyrrolo[2,3-f][1,4]diazocine-2,11(3H)-dione]	1.64 nM
Cc1cc(C(F)(F)F)cc(N2C(=O)C[C@@H]3CN(Cc4cccnc4)c4c(C)cccc4N(C)C(=O)[C@H]32)n1 [Example 115, (3aR,11aS)-6,10-Dimethyl-1-(6-methyl-4-(trifluoromethyl)pyridin-2-yl)-5-(pyridin-3-ylmethyl)-1,3a,4,5,10,11a-hexahydro-2H-benzo[b]pyrrolo[2,3-f][1,4]diazocine-2,11(3H)-dione]	1.08 nM
Cc1cc(C(F)(F)F)cc(N2C(=O)C[C@@H]3CN(Cc4cn5c(n4)CN(C)CC5)c4c(C)cccc4N(C)C(=O)[C@H]32)n1 [Example 121, (3aR,11aS)-6,10-Dimethyl-1-(6-methyl-4-(trifluoromethyl)pyridin-2-yl)-5-((7-methyl-5,6,7,8-tetrahydroimidazo[1,2-a]pyrazin-2-yl)methyl)-1,3a,4,5,10,11a-hexahydro-2H-benzo[b]pyrrolo[2,3-f][1,4]diazocine-2,11(3H)-dione]	0.258 nM
Cc1cc(C(F)(F)F)cc(N2C(=O)C[C@@H]3CN(Cc4ccc5c(c4)CCN(C)C5)c4c(F)cccc4N(C)C(=O)[C@H]32)n1 [Example 122, (3aR,11aS)-6-Fluoro-10-methyl-5-((2-methyl-1,2,3,4-tetrahydroisoquinolin-6-yl)methyl)-1-(6-methyl-4-(trifluoromethyl)pyridin-2-yl)-1,3a,4,5,10,11a-hexahydro-2H-benzo[b]pyrrolo[2,3-f][1,4]diazocine-2,11(3H)-dione]	1.94 nM
Cc1cc(C(F)(F)F)cc(N2C(=O)C[C@@H]3CN(Cc4ccc5c(c4)CN(C)C5)c4c(F)cccc4N(C)C(=O)[C@H]32)n1 [Example 123, (3aR,11aS)-6-Fluoro-10-methyl-1-(6-methyl-4-(trifluoromethyl)pyridin-2-yl)-5-((2-methylisoindolin-5-yl)methyl)-1,3a,4,5,10,11a-hexahydro-2H-benzo[b]pyrrolo[2,3-f][1,4]diazocine-2,11(3H)-dione hydrochloride]	2.2 nM
Cc1cc(C(F)(F)F)cc(N2C(=O)C[C@@H]3CN(Cc4cccc(C5CN(C)C5)c4)c4c(F)cccc4N(C)C(=O)[C@H]32)n1 [Example 124, (3aR,11aS)-6-Fluoro-10-methyl-1-(6-methyl-4-(trifluoromethyl)pyridin-2-yl)-5-(3-(1-methylazetidin-3-yl)benzyl)-1,3a,4,5,10,11a-hexahydro-2H-benzo[b]pyrrolo[2,3-f][1,4]diazocine-2,11(3H)-dione]	4.26 nM
Cc1cc(C(F)(F)F)cc(N2C(=O)C[C@@H]3CN(CCCO)c4c(F)cccc4N(C)C(=O)[C@H]32)n1 [Example 127, (3aR,11aS)-6-Fluoro-5-(3-hydroxypropyl)-10-methyl-1-(6-methyl-4-(trifluoromethyl)pyridin-2-yl)-1,3a,4,5,10,11a-hexahydro-2H-benzo[b]pyrrolo[2,3-f][1,4]diazocine-2,11(3H)-dione]	7.21 nM
Cc1cc(C(F)(F)F)cc(N2C(=O)C[C@@H]3CN(CCCN(C)C)c4c(C)cccc4N(C)C(=O)[C@H]32)n1 [Example 128, (3aR,11aS)-5-(3-(Dimethylamino)propyl)-6,10-dimethyl-1-(6-methyl-4-(trifluoromethyl)pyridin-2-yl)-1,3a,4,5,10,11a-hexahydro-2H-benzo[b]pyrrolo[2,3-f][1,4]diazocine-2,11(3H)-dione]	1.39 nM
Cc1cc(C(F)(F)F)cc(N2C(=O)C[C@@H]3CN(CCCN4CCN(C)CC4)c4c(Cl)cccc4N(C)C(=O)[C@H]32)n1 [Example 129, (3aR,11aS)-6-Chloro-10-methyl-1-(6-methyl-4-(trifluoromethyl)pyridin-2-yl)-5-(3-(4-methylpiperazin-1-yl)propyl)-1,3a,4,5,10,11a-hexahydro-2H-benzo[b]pyrrolo[2,3-f][1,4]diazocine-2,11(3H)-dione]	1.23 nM
Cc1cc(C(F)(F)F)cc(N2C(=O)C[C@@H]3CN(c4ccccn4)c4c(F)cccc4N(C)C(=O)[C@H]32)n1 [Example 134, (3aR,11aS)-6-Fluoro-10-methyl-1-(6-methyl-4-(trifluoromethyl)pyridin-2-yl)-5-(pyridin-2-yl)-1,3a,4,5,10,11a-hexahydro-2H-benzo[b]pyrrolo[2,3-f][1,4]diazocine-2,11(3H)-dione]	104 nM
Cc1cc(C(F)(F)F)cc(N2C(=O)C[C@@H]3CN(CCCN(C)C)c4c(Cl)cccc4N(C)C(=O)[C@H]32)n1 [Example 135, (3aR,11aS)-6-Chloro-5-(3-(dimethylamino)propyl)-10-methyl-1-(6-methyl-4-(trifluoromethyl)pyridin-2-yl)-1,3a,4,5,10,11a-hexahydro-2H-benzo[b]pyrrolo[2,3-f][1,4]diazocine-2,11(3H)-dione]	3.49 nM
Cc1cc(C(F)(F)F)cc(N2C(=O)C[C@@H]3CN(CCCN4CCOCC4)c4c(Cl)cccc4N(C)C(=O)[C@H]32)n1 [Example 136, (3aR,11aS)-6-Chloro-10-methyl-1-(6-methyl-4-(trifluoromethyl)pyridin-2-yl)-5-(3-morpholinopropyl)-1,3a,4,5,10,11a-hexahydro-2H-benzo[b]pyrrolo[2,3-f][1,4]diazocine-2,11(3H)-dione hydrochloride]	0.786 nM
